In US20140148443A1, “Novel Imidazolines as dual inhibitors of MDM2 and MDMX” (priority 2012, published 2014):
Counter-ions that a name gives are not always drawn.

Columns and labels:
[1] = target: T1, GST-tagged MDMX (Homo sapiens, UniProt O15151); experiment: HTRF binding assay of GST-tagged MDMX to p53 peptide
T1 sequence (O15151 1-490): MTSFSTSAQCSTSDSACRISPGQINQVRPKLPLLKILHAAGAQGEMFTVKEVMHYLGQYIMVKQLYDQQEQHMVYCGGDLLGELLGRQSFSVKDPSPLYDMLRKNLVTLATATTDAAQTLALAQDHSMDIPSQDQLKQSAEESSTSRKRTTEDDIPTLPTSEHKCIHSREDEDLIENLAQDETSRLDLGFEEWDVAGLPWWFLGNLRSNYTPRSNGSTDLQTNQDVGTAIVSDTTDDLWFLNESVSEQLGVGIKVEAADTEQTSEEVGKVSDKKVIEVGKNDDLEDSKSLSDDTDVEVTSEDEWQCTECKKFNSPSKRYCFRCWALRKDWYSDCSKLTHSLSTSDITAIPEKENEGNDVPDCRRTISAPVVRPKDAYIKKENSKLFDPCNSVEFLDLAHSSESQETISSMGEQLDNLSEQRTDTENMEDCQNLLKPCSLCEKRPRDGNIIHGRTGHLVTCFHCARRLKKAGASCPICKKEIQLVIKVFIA

[2] = target: recombinant GST-tagged MDM2 (Homo sapiens, UniProt Q00987); experiment: HTRF assay of interaction between p53 peptide and GST-tagged MDM2; settings: inhibition of GST-MDM2 (160 ng/ml) binding to biotinylated p53-peptide
Description: The ability of a test compound to inhibit the interaction between p53 and MDM2 protein was measured by an HTRF (homogeneous time-resolved fluorescence) assay in which recombinant GST-tagged MDM2 binds to a peptide that resembles the MDM2-interacting region of p53 Aca-[…]-OH hereinafter p53-peptide). Binding of GST-MDM2 protein and p53-peptide (biotinylated on its N-terminal end) is registered by the FRET (fluorescence resonance energy transfer) between Europium (Eu)-labeled anti-GST antibody and streptavidin-conjugated Allophycocyanin (APC).
The test was performed in black flat-bottom 384-well plates (Costar) in a total volume of 40 uL containing: 90 nM biotinylated peptide, 160 ng/ml GST-MDM2, 20 nM streptavidin-APC (PerkinElmerWallac), 2 nM Eu-labeled anti-GST-antibody (PerkinElmerWallac), 0.02% bovine serum albumin (BSA), 1 mM dithiothreitol (DTT) and 20 mM […] (TBS) buffer as follows: add 10 uL of GST-MDM2 (640 ng/ml working solution) in reaction buffer to each well. Add 10 uL diluted compounds (1:5 dilution in reaction buffer) to each well, mix by shaking. Add 20 uL biotinylated p53 peptide (180 nM working solution) in reaction buffer to each well and mix on shaker. Incubate at 37° C. for 1 h. Add […] streptavidin-APC and Eu-anti-GST antibody mixture (6 nM Eu-anti-GST and 60 nM streptavidin-APC working solution) in TBS buffer with 0.02% BSA, shake at room temperature for 30 minutes and read using a TRF-capable plate reader at 665 and 615 nm (Victor 5, Perkin ElmerWallac). If not specified, the reagents were purchased from Sigma Chemical Co.

Chain of recombinant GST-tagged MDM2 (Q00987 whole entry): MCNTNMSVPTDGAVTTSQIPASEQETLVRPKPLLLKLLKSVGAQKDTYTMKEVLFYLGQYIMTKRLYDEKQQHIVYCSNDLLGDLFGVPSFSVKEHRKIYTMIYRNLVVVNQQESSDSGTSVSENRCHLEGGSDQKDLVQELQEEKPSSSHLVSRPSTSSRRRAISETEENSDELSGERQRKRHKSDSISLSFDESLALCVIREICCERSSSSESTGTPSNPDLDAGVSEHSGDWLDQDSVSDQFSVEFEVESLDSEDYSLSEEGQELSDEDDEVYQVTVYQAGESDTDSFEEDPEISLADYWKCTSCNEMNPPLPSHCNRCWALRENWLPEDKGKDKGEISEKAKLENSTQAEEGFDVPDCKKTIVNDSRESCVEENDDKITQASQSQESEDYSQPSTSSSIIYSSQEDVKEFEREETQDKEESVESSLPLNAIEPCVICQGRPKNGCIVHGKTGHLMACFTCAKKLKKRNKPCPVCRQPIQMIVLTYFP

| SMILES | IC50 [1] [nM] | IC50 [2] [nM] |
| --- | --- | --- |
| CCOCCN(CCOCC)C(=O)CC1CCN(C(=O)N2C(c3cc(S(C)(=O)=O)c(Cl)cc3OCC)=N[C@@](C)(c3ccc(Cl)cc3)[C@@]2(C)c2ccc(Cl)cc2)CC1 [Example 25, 2-{1-[(4S,5R)-2-(4-Chloro-2-ethoxy-5-methanesulfonyl-phenyl)-4,5-bis-(4-chloro-phenyl)-4,5-dimethyl-4,5-dihydro-imidazole-1-carbonyl]-piperidin-4-yl}-N,N-bis-(2-ethoxy-ethyl)-acetamide] | 1510 | 4.4 |
| CCOc1cc(Cl)c(S(C)(=O)=O)cc1C1=N[C@@](C)(c2ccc(Cl)cc2)[C@@](C)(c2ccc(Cl)cc2)N1C(=O)N1CCN(CCS(=O)(=O)CC)CC1 [Example 26, [(4S,5R)-2-(4-Chloro-2-ethoxy-5-methanesulfonyl-phenyl)-4,5-bis-(4-chloro-phenyl)-4,5-dimethyl-4,5-dihydro-imidazol-1-yl]-[4-(2-ethanesulfonyl-ethyl)-piperazin-1-yl]-methanone] | 2010 | 5.2 |
| CCOc1cc(Cl)c(S(C)(=O)=O)cc1C1=N[C@@](C)(c2ccc(Cl)cc2)[C@@](C)(c2ccc(Cl)cc2)N1C(=O)N1CCN(CCC(N)=O)CC1 [Example 27, 3-{4-[(4S,5R)-2-(4-Chloro-2-ethoxy-5-methanesulfonyl-phenyl)-4,5-bis-(4-chloro-phenyl)-4,5-dimethyl-4,5-dihydro-imidazole-1-carbonyl]-piperazin-1-yl}-propionamide] | 2810 | 8.8 |
| CCOc1cc(Cl)c(S(C)(=O)=O)cc1C1=N[C@@](C)(c2ccc(Cl)cc2)[C@@](C)(c2ccc(Cl)cc2)N1C(=O)N1CCC2(CCN(CCS(=O)(=O)CC)CC2)CC1 [Example 28, [(4S,5R)-2-(4-Chloro-2-ethoxy-5-methanesulfonyl-phenyl)-4,5-bis-(4-chloro-phenyl)-4,5-dimethyl-4,5-dihydro-imidazol-1-yl]-[9-(2-ethanesulfonyl-ethyl)-3,9-diaza-spiro[5.5]undec-3-yl]-methanone] | 1490 | 4.6 |
| CCOc1cc(Cl)c(S(C)(=O)=O)cc1C1=N[C@@](C)(c2ccc(Cl)cc2)[C@@](C)(c2ccc(Cl)cc2)N1C(=O)N1CCN(CC(=O)NC)CC1 [Example 29, 2-{4-[(4S,5R)-2-(4-Chloro-2-ethoxy-5-methanesulfonyl-phenyl)-4,5-bis-(4-chloro-phenyl)-4,5-dimethyl-4,5-dihydro-imidazole-1-carbonyl]-piperazin-1-yl}-N-methyl-acetamide] | 1010 | 5 |
| CCOc1cc(Cl)c(S(C)(=O)=O)cc1C1=N[C@@](C)(c2ccc(Cl)cc2)[C@@](C)(c2ccc(Cl)cc2)N1C(=O)N1CCC(NC(=O)N2CCCC2)CC1 [Example 30, Pyrrolidine-1-carboxylic acid {1-[(4S,5R)-2-(4-chloro-2-ethoxy-5-methanesulfonyl-phenyl)-4,5-bis-(4-chloro-phenyl)-4,5-dimethyl-4,5-dihydro-imidazole-1-carbonyl]-piperidin-4-yl}-amide] | 3350 | 12.7 |
| CCOc1cc(Cl)c(S(C)(=O)=O)cc1C1=N[C@@](C)(c2ccc(Cl)cc2)[C@@](C)(c2ccc(Cl)cc2)N1C(=O)N1CCC(NC(=O)NC2CCCC2)CC1 [Example 31, 1-{1-[(4S,5R)-2-(4-Chloro-2-ethoxy-5-methanesulfonyl-phenyl)-4,5-bis-(4-chloro-phenyl)-4,5-dimethyl-4,5-dihydro-imidazole-1-carbonyl]-piperidin-4-yl}-3-cyclopentyl-urea] | 1590 | 5.3 |
| CCOc1cc(Cl)c(S(C)(=O)=O)cc1C1=N[C@@](C)(c2ccc(Cl)cc2)[C@@](C)(c2ccc(Cl)cc2)N1C(=O)N1CCC(NC(N)=O)CC1 [Example 32, {1-[(4S,5R)-2-(4-Chloro-2-ethoxy-5-methanesulfonyl-phenyl)-4,5-bis-(4-chloro-phenyl)-4,5-dimethyl-4,5-dihydro-imidazole-1-carbonyl]-piperidin-4-yl}-urea] | 1460 | 5.2 |
| CCOc1cc(Cl)c(S(C)(=O)=O)cc1C1=N[C@@](C)(c2ccc(Cl)cc2)[C@@](C)(c2ccc(Cl)cc2)N1C(=O)N1CCC(NS(C)(=O)=O)CC1 [Example 33, N-{1-[(4S,5R)-2-(4-Chloro-2-ethoxy-5-methanesulfonyl-phenyl)-4,5-bis-(4-chloro-phenyl)-4,5-dimethyl-4,5-dihydro-imidazole-1-carbonyl]-piperidin-4-yl}-methanesulfonamide] | 1120 | 5.3 |
| CCOc1cc(Cl)c(S(C)(=O)=O)cc1C1=N[C@@](C)(c2ccc(Cl)cc2)[C@@](C)(c2ccc(Cl)cc2)N1C(=O)N1CCC(NC(=O)NC2CCS(=O)(=O)C2)CC1 (stereo partly drawn) [Example 34, 1-{1-[(4S,5R)-2-(4-Chloro-2-ethoxy-5-methanesulfonyl-phenyl)-4,5-bis-(4-chloro-phenyl)-4,5-dimethyl-4,5-dihydro-imidazole-1-carbonyl]-piperidin-4-yl}-3-(1,1-dioxo-tetrahydro-1λ6-thiophen-3-yl)-urea] | 1350 | 6.3 |
| CCOc1cc(Cl)c(S(C)(=O)=O)cc1C1=N[C@@](C)(c2ccc(Cl)cc2)[C@@](C)(c2ccc(Cl)cc2)N1C(=O)N1CCN(CC(=O)O)CC1 [Example 35, {4-[(4S,5R)-2-(4-Chloro-2-ethoxy-5-methanesulfonyl-phenyl)-4,5-bis-(4-chloro-phenyl)-4,5-dimethyl-4,5-dihydro-imidazole-1-carbonyl]-piperazin-1-yl}-acetic acid, hydrochloride] | 2860 | 6.7 |
| CCOc1cc(Cl)c(S(C)(=O)=O)cc1C1=N[C@@](C)(c2ccc(Cl)cc2)[C@@](C)(c2ccc(Cl)cc2)N1C(=O)N1CCC(NC(C)=O)CC1 [Example 36, N-{1-[(4S,5R)-2-(4-Chloro-2-ethoxy-5-methanesulfonyl-phenyl)-4,5-bis-(4-chloro-phenyl)-4,5-dimethyl-4,5-dihydro-imidazole-1-carbonyl]-piperidin-4-yl}-acetamide] | 1270 | 4.8 |
| CCOc1cc(Cl)c(S(C)(=O)=O)cc1C1=N[C@@](C)(c2ccc(Cl)cc2)[C@@](C)(c2ccc(Cl)cc2)N1C(=O)N1CCC(N(C)CCCN(C)C)C1 (stereo partly drawn) [Example 37, [(4S,5R)-2-(4-Chloro-2-ethoxy-5-methanesulfonyl-phenyl)-4,5-bis-(4-chloro-phenyl)-4,5-dimethyl-4,5-dihydro-imidazol-1-yl]-{3-[(3-dimethylamino-propyl)-methyl-amino]-pyrrolidin-1-yl}-methanone] | 3910 | 6.1 |
| CCOc1cc(Cl)c(S(C)(=O)=O)cc1C1=N[C@@](C)(c2ccc(Cl)cc2)[C@@](C)(c2ccc(Cl)cc2)N1C(=O)N1CCC(O)CC1 [Example 38, [(4S,5R)-2-(4-Chloro-2-ethoxy-5-methanesulfonyl-phenyl)-4,5-bis-(4-chloro-phenyl)-4,5-dimethyl-4,5-dihydro-imidazol-1-yl]-(4-hydroxy-piperidin-1-yl)-methanone] | 2890 | 8.4 |
| CCOc1cc(Cl)c(S(C)(=O)=O)cc1C1=N[C@@](C)(c2ccc(Cl)cc2)[C@@](C)(c2ccc(Cl)cc2)N1C(=O)N1CCC(CC(N)=O)CC1 [Example 39, 2-{1-[(4S,5R)-2-(4-Chloro-2-ethoxy-5-methanesulfonyl-phenyl)-4,5-bis-(4-chloro-phenyl)-4,5-dimethyl-4,5-dihydro-imidazole-1-carbonyl]-piperidin-4-yl}-acetamide] | 1030 | 6.1 |
| CC(C)Oc1cc(Cl)c(S(C)(=O)=O)cc1C1=N[C@@](C)(c2ccc(Cl)cc2)[C@@](C)(c2ccc(Cl)cc2)N1C(=O)N1CCN(CCCS(C)(=O)=O)CC1 [Example 40, [(4S,5R)-2-(4-Chloro-2-isopropoxy-5-methanesulfonyl-phenyl)-4,5-bis-(4-chloro-phenyl)-4,5-dimethyl-4,5-dihydro-imidazol-1-yl]-[4-(3-methanesulfonyl-propyl)-piperazin-1-yl]-methanone] | 290 | 6.1 |
